Laboratory results reported in patent publication US4370459A, “Polymerizing unsaturated monomers with gem-diperoxyester catalyst” (priority 1980, dated 1983).

Experiments:
[1] = Half-lives of gem-diperoxyesters (10 hour half-life temperature); format: physicochemical; details: 0.2M in benzene
From the text: HALF-LIFES OF VARIOUS GEM-DIPEROXYESTERS

[2] = Suspension polymerization of vinyl chloride monomer in pop bottles with gem-diperoxyester initiators
Procedure: A series of polymerizations was performed to illustrate the improved efficiencies of the new compounds as initiators of vinyl chloride monomer. 2,2-Bis(2-ethyl hexanoylperoxy)butane (KP-A) is one compound that can be made by the procedures of the above referenced Japanese patents and was included as typical of the prior art.
The data in Table III were obtained in the following manner:
The suspension polymerizations were performed in pop bottles using uninhibited monomer. Duplicate bottles were analyzed at each polymerization time interval. The following table lists some general information about the polymerization procedure used.
After the desired amounts of reactants were added to the pop bottles, they were capped, the contents almost melted, and the bottles placed in a rotating constant temperature bath at the temperatures and for the times shown in Table III. The bottles were frozen before venting-off excess monomer. The polymer was filtered, washed, and dried. All initiator concentrations shown have been corrected for purity.

[3] = Hot block gel tests with polyester resin (curing); details: 0.75 % Wt used
Procedure: The unsaturated polyester resins cured by the present process comprises those polyesters described in U.S. Pat. No. 4,129,613, the disclosure thereof being incorporated by reference herein. The following Table IV is typical of the improved results obtained with the present compounds.
HOT BLOCK GEL TESTS WITH POLYESTER RESIN
USING VARIOUS GEM-DIPEROXYESTERS
Resin: USS Chemical MR-941 (Isophthalic)
Block Temp.: 180 ± 1° F. (82° C.)
Peroxide Concentration Corrected for Purity, […]

[4] = SET 1, 7 hrs. at 22° C., 0.10 % Wt. used
[5] = SET 2, 7 hrs. at 40° C., 4.01 × 10^-4 moles initiator/100g VCM
[6] = SET 3, 6 hrs. at 50° C., 2.50 × 10^-4 moles initiator/100g VCM
[7] = SET 1, block temp. 180 ± 1° F. (82° C.)
[8] = SET 2, block temp. 180 ± 1° F. (82° C.)
[9] = SET 1, 7 hrs. at 22° C., 0.20 % Wt. used
[10] = SET 4, 5.5 hrs. at 55° C., 1.25 × 10^-4 moles initiator/100g VCM
[11] = SET 4, 5.5 hrs. at 55° C., 1.75 × 10^-4 moles initiator/100g VCM
[12] = SET 5, 5 hrs. at 60° C., 1.25 × 10^-4 moles initiator/100g VCM
[13] = SET 5, 5 hrs. at 60° C., 1.75 × 10^-4 moles initiator/100g VCM
[14] = SET 3, 6 hrs. at 50° C., 1.50 × 10^-4 moles initiator/100g VCM

3,3-bis(neodecanoylperoxy)pentane [KP-C]
10 Hour Half-Life Temperature [1]: 23.3 °C | % Conversion [2, 4]: 27.8% | % Conversion [2, 5]: 63.1% | % Conversion [2, 6]: 38.0% | Peak Temp (exotherm) [3, 7]: 225 °F.

CC(C)(C)C1CCC(OC(=O)OOC(=O)OC2CCC(C(C)(C)C)CC2)CC1 (centres unmarked) [DBCPD, Di4-t-butyl cyclohexylperoxydicarbonate, reference compound]
Peak Temp (exotherm) [3, 7]: 244 °F. | Peak Temp (exotherm) [3, 8]: 260 °F.

CCCCC(CC)C(=O)OOC(C)(CC)OOC(=O)C(CC)CCCC (centres unmarked) [KP-A, 2,2-Bis(2-Ethyl Hexanoylperoxy)Butane, reference compound]
10 Hour Half-Life Temperature [1]: 43.7 °C | % Conversion [2, 9]: 5.0% | % Conversion [2, 5]: 45.9% | % Conversion [2, 6]: 75.85% | % Conversion [2, 10]: 53.4% | % Conversion [2, 11]: 72.1% | % Conversion [2, 12]: 67.8% | % Conversion [2, 13]: 83.2% | Peak Temp (exotherm) [3, 8]: 275 °F.

CCC(CC)(OOC(=O)C(C)(C)C)OOC(=O)C(C)(C)C [KP-B, 3,3-bis(pivaloylperoxy)pentane]
10 Hour Half-Life Temperature [1]: 24 °C | % Conversion [2, 4]: 52.2% | % Conversion [2, 5]: 90.4% | % Conversion [2, 6]: 51.8% | Peak Temp (exotherm) [3, 7]: 221 °F.

CCCCC(CC)C(=O)OOC(CC)(CC)OOC(=O)C(CC)CCCC (centres unmarked) [KP-D, 3,3-bis(2-ethylhexanoylperoxy)pentane]
10 Hour Half-Life Temperature [1]: 39.7 °C | % Conversion [2, 9]: 10.7% | % Conversion [2, 5]: 75.4% | % Conversion [2, 14]: 79.1% | % Conversion [2, 6]: 89.1% | % Conversion [2, 10]: 69.6% | % Conversion [2, 11]: 84.2% | % Conversion [2, 12]: 70.5% | % Conversion [2, 13]: 83.8% | Peak Temp (exotherm) [3, 7]: 249 °F. | Peak Temp (exotherm) [3, 8]: 260 °F.

CCC(CC)(OOC(=O)C(C)C)OOC(=O)C(C)C [KP-E, 3,3-bis(2-methylpropionylperoxy)pentane]
% Conversion [2, 9]: 0.5% | % Conversion [2, 5]: 39.6% | % Conversion [2, 6]: 74.4% | % Conversion [2, 11]: 76.1% | % Conversion [2, 12]: 71.5% | % Conversion [2, 13]: 86.7%

CCC(CC)C(=O)OOC(CC)(CC)OOC(=O)C(CC)CC [KP-F, 3,3-Bis(2-Ethyl Butanoylperoxy)Pentane]
10 Hour Half-Life Temperature [1]: 40 °C | % Conversion [2, 9]: 4.3% | % Conversion [2, 5]: 88.3% | % Conversion [2, 14]: 82.5% | % Conversion [2, 6]: 92.5% | % Conversion [2, 10]: 74.1% | % Conversion [2, 11]: 85.9% | % Conversion [2, 12]: 67.8% | % Conversion [2, 13]: 81.8% | Peak Temp (exotherm) [3, 8]: 271 °F.

CCCC(C)C(=O)OOC(CC)(CC)OOC(=O)C(C)CCC (centres unmarked) [KP-G, 3,3-bis(2-methylpentanoylperoxy)pentane]
% Conversion [2, 9]: 1.6% | % Conversion [2, 5]: 67.3% | % Conversion [2, 6]: 88.5% | % Conversion [2, 10]: 72.8% | % Conversion [2, 11]: 86.2% | % Conversion [2, 12]: 72.6% | % Conversion [2, 13]: 85.9%

CCCCC(CC)C(=O)OOC(C)(CC(C)(C)O)OOC(=O)C(CC)CCCC (centres unmarked) [KP-H, 2,2-bis(2-ethylhexanoylperoxy)-4-hydroxy-4-methylpentane]
% Conversion [2, 11]: 63.9% | % Conversion [2, 13]: 58.1%

CCC(CC)C(=O)OOC(C)(CC(C)(C)O)OOC(=O)C(CC)CC [KP-I, 2,2-bis(2-ethylbutanoylperoxy)-4-hydroxy-4-methylpentane]
% Conversion [2, 11]: 66.1% | % Conversion [2, 13]: 65.4%
